From ChEMBL document CHEMBL4130610, “Isolation of Flavonoids and Flavonoid Glycosides from Myrsine africana and Their Inhibitory Activities against Mushroom Tyrosinase” (J Nat Prod, 2018) come the findings set out here.

Experiment [1] deals with T1, Tyrosinase (Agaricus bisporus, UniProt O42713).
T1 sequence (O42713 whole entry): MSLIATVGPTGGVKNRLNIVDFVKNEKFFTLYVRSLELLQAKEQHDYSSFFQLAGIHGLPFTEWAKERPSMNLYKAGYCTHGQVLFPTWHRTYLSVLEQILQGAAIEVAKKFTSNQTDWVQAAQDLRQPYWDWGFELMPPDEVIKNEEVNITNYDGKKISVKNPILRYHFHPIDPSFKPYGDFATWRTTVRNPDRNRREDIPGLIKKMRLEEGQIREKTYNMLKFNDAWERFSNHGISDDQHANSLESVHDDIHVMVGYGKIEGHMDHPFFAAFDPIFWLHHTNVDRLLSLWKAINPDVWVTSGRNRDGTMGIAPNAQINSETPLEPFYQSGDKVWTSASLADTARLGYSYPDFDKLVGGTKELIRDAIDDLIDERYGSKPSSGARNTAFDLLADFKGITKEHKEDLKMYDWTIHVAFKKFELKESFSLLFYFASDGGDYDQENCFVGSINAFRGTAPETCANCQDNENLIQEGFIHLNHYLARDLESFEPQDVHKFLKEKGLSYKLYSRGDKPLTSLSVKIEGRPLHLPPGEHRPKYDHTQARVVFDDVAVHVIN
Kind of experiment: Inhibition of mushroom tyrosinase using L-tyrosine as substrate pretreated for 5 mins followed by substrate addition measured over 30 mins by spectrophotometric method.

Experiment [2] deals with T1, Tyrosinase. Kind of experiment: Inhibition of mushroom tyrosinase.
Experiment [3] concerns the target T1, Tyrosinase. Kind of experiment: Inhibition of mushroom tyrosinase using L-DOPA as substrate measured at 1 min interval by spectrophotometric method.

As a reminder, the IC50 is the midpoint of a concentration-inhibition curve. `CC(=O)O[C@@H]1[C@@H](O)[C@@H](OC(C)=O)[C@H](Oc2c(-c3cc(O)c(O)c(O)c3)oc3cc(O)cc(O)c3c2=O)O[C@H]1C`: the IC50 on Tyrosinase [1] was 520 µM.
With `COc1c(O)cc(-c2oc3cc(O)cc(O)c3c(=O)c2O[C@@H]2O[C@@H](C)[C@H](O)[C@@H](O)[C@H]2O)cc1O`, at Tyrosinase [1], the IC50 was found to be 310 µM.
Consider `C[C@@H]1O[C@@H](Oc2c(-c3ccc(O)c(O)c3)oc3cc(O)cc(O)c3c2=O)[C@H](O)[C@H](O)[C@H]1O` [QUERCITRIN], for which the IC50 at Tyrosinase [1] is 150 µM; at Tyrosinase [2] it was 100 µM.
`O=c1c(O)c(-c2ccc(O)c(O)c2)oc2cc(O)cc(O)c12` [QUERCETIN]: the IC50 on Tyrosinase [1] turned out to be 240 µM.
In the case of `C[C@@H]1O[C@@H](OC[C@H]2O[C@@H](Oc3c(-c4ccc(O)c(O)c4)oc4cc(O)cc(O)c4c3=O)[C@H](O)[C@@H](O)[C@@H]2O)[C@H](O)[C@H](O)[C@H]1O` [RUTIN], the figures for the IC50 at Tyrosinase [1] and on Tyrosinase [3] were 130 µM and 70 µM, respectively.
As to `CC(=O)O[C@@H]1[C@@H](O)[C@@H](O)[C@H](Oc2c(-c3cc(O)c(O)c(O)c3)oc3cc(O)cc(O)c3c2=O)O[C@H]1C`, the half-inhibitory concentration (IC50) on Tyrosinase [1] came to 280 µM.
Same read-out and setting: then `OC[C@H]1O[C@@H](Oc2c(O)cc(O)cc2O)[C@H](O)[C@@H](O)[C@@H]1O`, with 410 µM.
The same measure, in the same setting: next, `CC(=O)O[C@@H]1[C@@H](OC(C)=O)[C@@H](O)[C@H](Oc2c(-c3cc(O)c(O)c(O)c3)oc3cc(O)cc(O)c3c2=O)O[C@H]1C`: 180 µM.
For `C[C@@H]1O[C@@H](Oc2c(-c3cc(O)c(O)c(O)c3)oc3cc(O)cc(O)c3c2=O)[C@H](O)[C@H](O)[C@H]1O`, the IC50 on Tyrosinase [1] stood at 120 µM; on Tyrosinase [2] it was 320 µM.
On to `COc1c(O)cc(-c2oc3cc(O)cc(O)c3c(=O)c2O[C@@H]2O[C@@H](C)[C@H](OC(C)=O)[C@@H](O)[C@H]2O)cc1O`, for which the IC50 at Tyrosinase [1] turned out to be 190 µM.
